Assay: xn = mol fraction of the nth substance listed
Conditions: Liquid

CCCCCl [1-chlorobutane] + CCCCCC
mass density [kg/m3]
Conditions | x1 = 0.1099 | x1 = 0.212 | x1 = 0.2925 | x1 = 0.316 | x1 = 0.405 | x1 = 0.4978 | x1 = 0.5975 | x1 = 0.6869 | x1 = 0.8294 | x1 = 0.9025
323.15 K, 5000 kPa | – | – | 691.59 | 696.23 | 714.41 | 734.25 | 756.52 | 777.43 | 812.8 | 831.94
323.15 K, 10000 kPa | 663.04 | 682.03 | 697.57 | 702.21 | 720.41 | 740.23 | 762.49 | 783.36 | 818.69 | 837.82
323.15 K, 15000 kPa | 668.53 | 687.54 | 703.11 | 707.76 | 725.96 | 745.81 | 768.07 | 788.94 | 824.21 | 843.35
323.15 K, 20000 kPa | 673.62 | 692.66 | 708.23 | 712.92 | 731.15 | 751.01 | 773.25 | 794.16 | 829.43 | 848.55
323.15 K, 25000 kPa | 678.38 | 697.47 | 713.06 | 717.75 | 736.01 | 755.88 | 778.17 | 799.07 | 834.36 | 853.47
323.15 K, 30000 kPa | 682.82 | 701.95 | 717.58 | 722.3 | 740.59 | 760.48 | 782.79 | 803.7 | 839.01 | 858.16
323.15 K, 35000 kPa | 687.05 | 706.22 | 721.89 | 726.62 | 744.94 | 764.87 | 787.22 | 808.14 | 843.47 | 862.63
333.15 K, 100 kPa | 640.84 | 659.59 | 674.97 | 679.61 | 697.62 | 717.27 | 739.37 | 760.13 | 795.31 | 814.35
333.15 K, 2500 kPa | 644.37 | 663.28 | 678.48 | 683.13 | 701.13 | 720.76 | 742.8 | 763.57 | 798.68 | 817.7
333.15 K, 5000 kPa | 647.85 | 666.6 | 681.96 | 686.6 | 704.59 | 724.22 | 746.27 | 766.97 | 802.05 | 821.05
333.15 K, 10000 kPa | 654.25 | 673.04 | 688.41 | 693.04 | 711.02 | 730.64 | 752.68 | 773.35 | 808.4 | 827.36
333.15 K, 15000 kPa | 660.12 | 678.96 | 694.34 | 698.97 | 716.97 | 736.59 | 758.64 | 779.29 | 814.33 | 833.22
333.15 K, 20000 kPa | 665.54 | 684.42 | 699.82 | 704.46 | 722.46 | 742.1 | 764.16 | 784.83 | 819.85 | 838.75
333.15 K, 25000 kPa | 670.56 | 689.51 | 704.94 | 709.59 | 727.62 | 747.28 | 769.35 | 790.03 | 825.07 | 843.95
333.15 K, 30000 kPa | 675.27 | 694.27 | 709.73 | 714.38 | 732.45 | 752.13 | 774.27 | 794.94 | 830 | 848.89
333.15 K, 35000 kPa | 679.71 | 698.78 | 714.25 | 718.92 | 737.02 | 756.72 | 778.9 | 799.6 | 834.7 | 853.59
